From ChEMBL document CHEMBL1201862, “PubChem BioAssay data set” (2004)
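Growth conditions: 96-well plates. Treatment: test compound, 48 hours, 5 concentrations. Analysis: linear interpolation between bracketing concentrations; unreached endpoints set to highest concentration. GI50: concentration for 50% inhibition of growth.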 The source made the active and inactive calls. Cut-off read from the data, not from the text of the source: active = GI50 up to about 1.1 µM and inactive = higher.

How the values were obtained:
Test in all cases: NCI anticancer screen, dose series, 48 h
[1] = test system: CCRF-CEM
[2] = test system: EKVX
[3] = test system: HL-60
[4] = test system: HT-29
[5] = test system: MOLT-4
[6] = test system: Malme-3M
[7] = test system: OVCAR-5
[8] = test system: RXF 393
[9] = test system: SF-539
[10] = test system: SK-MEL-28
[11] = test system: SK-MEL-2
[12] = test system: SK-OV-3
[13] = test system: SNB-75
[14] = test system: SR
[15] = test system: UO-31
[16] = test system: DMS-273
[17] = test system: KM-20L2
[18] = test system: M19-MEL
[19] = test system: RPMI-8226
[20] = test system: SNB-19

Measured: GI50

O=c1c(C(c2ccc(C(c3c(O)oc4cc(O)ccc4c3=O)c3c(O)oc4cc(O)ccc4c3=O)cc2)c2c(O)oc3cc(O)ccc3c2=O)c(O)oc2cc(O)ccc12
inactive: [1] 53.2 µM | [2] > 100 µM | [3] 44.6 µM | [4] > 100 µM | [5] > 100 µM | [6] > 100 µM | [7] > 100 µM | [8] > 100 µM | [9] > 100 µM | [10] > 100 µM | [11] > 100 µM | [12] > 100 µM | [13] > 100 µM | [14] > 100 µM | [15] > 100 µM

Nc1cc(-c2ccccc2)nn1-c1nsc2ccccc12
inactive: [1] 21.6 µM | [16] 80.7 µM | [2] 47.8 µM | [3] 61.8 µM | [4] 91.2 µM | [17] > 100 µM | [18] > 100 µM | [5] 55.1 µM | [7] > 100 µM | [19] 76.9 µM | [8] 14.4 µM | [9] > 100 µM | [10] 98.4 µM | [11] > 100 µM | [20] > 100 µM | [13] 19.7 µM | [14] 53.2 µM | [15] > 100 µM

CCC(=C(C#N)C#N)c1cc(OC)c(OC)c(OC)c1
inactive: [1] > 100 µM | [16] > 100 µM | [2] > 100 µM | [3] 22.1 µM | [4] > 100 µM | [17] > 100 µM | [18] > 100 µM | [5] > 100 µM | [6] > 100 µM | [7] > 100 µM | [19] 15.6 µM | [8] > 100 µM | [9] > 100 µM | [10] > 100 µM | [11] > 100 µM | [12] > 100 µM | [20] > 100 µM | [14] > 100 µM | [15] > 100 µM

O=C(O)CCC(NC(=O)c1ccc(Nc2nc3cc(C(F)(F)F)ccc3nc2-c2ccccc2)cc1)C(=O)O (configuration not stated)
inactive: [1] 97.3 µM | [16] 24.6 µM | [2] > 100 µM | [3] 84.3 µM | [4] 18.8 µM | [17] 24.3 µM | [18] > 100 µM | [5] 44.6 µM | [6] > 100 µM | [7] 63.5 µM | [19] > 63.1 µM | [8] 26.5 µM | [9] > 84.7 µM | [10] > 100 µM | [11] > 100 µM | [12] > 100 µM | [20] > 100 µM | [13] > 79.6 µM | [15] > 94.6 µM

CNC(=O)CN1CC(=O)N(C)C(=O)C1
inactive: [1] > 100 µM | [16] > 100 µM | [3] > 100 µM | [17] > 100 µM | [18] > 100 µM | [5] > 100 µM | [6] > 100 µM | [7] > 100 µM | [19] > 100 µM | [8] > 100 µM | [10] > 100 µM | [11] > 100 µM | [12] > 100 µM | [20] > 100 µM | [13] > 100 µM | [14] > 100 µM | [15] > 100 µM

COc1cc2c(cc1OC)C(C(c1ccccc1)c1ccccc1)N(C)CC2 (configuration not stated)
inactive: [1] 64.7 µM | [16] 77.3 µM | [2] > 100 µM | [3] 40.6 µM | [4] 35.1 µM | [17] 32.6 µM | [18] > 91.6 µM | [5] 38.3 µM | [6] 23.8 µM | [7] > 100 µM | [19] 36.6 µM | [8] 20 µM | [9] > 100 µM | [10] > 79.3 µM | [11] > 85.9 µM | [12] 79.3 µM | [20] > 100 µM | [13] 49.1 µM | [15] > 63.7 µM

CC1(C)Cc2c(C#N)c(N)c3c(c2CO1)C(=O)OC3=O
inactive: [1] > 100 µM | [16] > 100 µM | [2] > 100 µM | [3] > 100 µM | [4] > 100 µM | [17] > 100 µM | [18] > 100 µM | [5] > 100 µM | [6] > 100 µM | [7] > 100 µM | [19] > 100 µM | [8] > 100 µM | [9] > 100 µM | [10] > 100 µM | [11] > 100 µM | [12] > 100 µM | [20] > 100 µM | [14] > 100 µM | [15] > 100 µM

O=c1[nH]c(=O)n(CCOCP(=O)(O)O)nc1Br
inactive: [1] > 100 µM | [2] > 100 µM | [3] > 100 µM | [4] > 100 µM | [5] > 100 µM | [6] > 100 µM | [7] > 100 µM | [19] > 100 µM | [8] > 100 µM | [9] > 100 µM | [10] > 100 µM | [11] > 100 µM | [20] > 100 µM | [13] > 100 µM | [14] > 100 µM | [15] > 100 µM
